Laboratory results as given in patent US9365574B2, “Soluble guanylate cyclase activators” (Merck Sharp & Dohme Corp., priority 2010, dated 2016).

Test system: Spontaneously hypertensive rats (SHR)
Test: Acute Efficacy in Spontaneously Hypertensive Rats (SHR), telemetry blood pressure
Assay type: in vivo, rat
Description: Acute Efficacy in Spontaneously Hypertensive Rats (SHR)
Spontaneously hypertensive rats (SHR, male, Charles River) were implanted with DSI TA11PA-C40 telemetry device (Data Sciences, Inc., St. Paul, Minn.) under isoflurane or ketamine/metomidine anesthesia. The telemetry unit catheter was inserted into the descending aorta via the femoral artery and the telemetry device was implanted subcutaneously in the left flank area. Animals were allowed to recover from surgery for 14 days before the start of any studies. Blood pressure, heart rate, and activity signals from conscious, freely moving rats were recorded continuously for 30 seconds every 10 minutes. On the day prior to administration of compound, a single oral dose of vehicle (10% transcutol/20% Cremophor/70% water) was administered to all animals to establish baseline control data. The blood pressure lowering efficacy of compound (PO) or vehicle was evaluated following a single oral gavage. Data were collected as hourly averages, and changes in blood pressure were calculated by subtracting control baseline data on an hourly basis. Animals were maintained on normal diet with a 12 hour light-dark cycle.
Maximum peak decreases of systolic blood pressure (SBP) in SHR at a particular P.O. dose (mpk milligrams per kilogram) for the following representative compounds are provided.

Question: `CC1(C(N)=O)C(=O)Nc2nc(-c3nn(CCC(F)(F)C(F)(F)F)c4cc(Cl)ccc34)nc(N)c21` (single isomer, unassigned) [Example 159, 4-Amino-2-[6-Chloro-1-(3,3,4,4,4-Pentafluorobutyl)-1H-Indazol-3-yl]-5-Methyl-6-Oxo-6,7-Dihydro-5H-Pyrrolo[2,3-D]Pyrimidine-5-Carboxamide] was tested. Which “Maximum SBP reduction” value (dose 0.3 mpk) did it give?
Answer: 38 ± 6 mmHg

Question: What about the “Maximum peak decrease of systolic blood pressure (SBP) in SHR, Category” value (“Maximum peak decrease” below) (single oral dose 0.3 mpk P.O.) of the same compound?
Answer: B (Category B=SBP in SHRs 25-40 mmHg)

Question: `CC1(C(=O)NC2CC2)C(=O)Nc2nc(-c3nn(CCC(F)(F)C(F)(F)F)c4cc(Cl)ccc34)nc(N)c21` (single isomer, unassigned) [Example 160, 4-Amino-2-[6-Chloro-1-(3,3,4,4,4-Pentafluorobutyl)-1H-Indazol-3-yl]-N-Cyclopropyl-5-Methyl-6-Oxo-6,7-Dihydro-5H-Pyrrolo[2,3-D]Pyrimidine-5-Carboxamide] was tested. Which “Maximum SBP reduction” value (dose 0.3 mpk) did it give?
Answer: 77 ± 10 mmHg

Question: And the “Maximum peak decrease” value (single oral dose 0.3 mpk P.O.)?
Answer: C (Category C=SBP in SHRs>40 mmHg)

Question: With `CC1(c2ncccn2)C(=O)Nc2nc(-c3nn(CCC(F)(F)C(F)(F)F)c4ncccc34)nc(N)c21` (single isomer, unassigned) [Example 170, 4-Amino-5-Methyl-2-[1-(3,3,4,4,4-Pentafluorobutyl)-1H-Pyrazolo[3,4-B]Pyridin-3-yl]-5-Pyrimidin-2-yl-5,7-Dihydro-6H-Pyrrolo[2,3-D]Pyrimidin-6-One] as the compound, how does the “Maximum SBP reduction” value (dose 1.0 mpk) read?
Answer: 65 ± 13 mmHg

Question: And the “Maximum peak decrease” value (single oral dose 1 mpk P.O.)?
Answer: C (Category C=SBP in SHRs>40 mmHg)

Question: How did the “Maximum peak decrease” value (single oral dose 0.3 mpk P.O.) turn out when `CC1(c2ccccc2)C(=O)Nc2nc(-c3nc(CCC(F)(F)C(F)(F)F)c4ccccn34)nc(N)c21` (single isomer, unassigned) [Example 190, 4-Amino-5-Methyl-2-[1-(3,3,4,4,4-Pentafluorobutyl)Imidazo[1,5-A]Pyridin-3-yl]-5-Phenyl-5,7-Dihydro-6H-Pyrrolo[2,3-D]Pyrimidin-6-One] was run?
Answer: B (Category B=SBP in SHRs 25-40 mmHg)

Question: How did the “Maximum peak decrease” value (single oral dose 0.3 mpk P.O.) turn out when `CC1(C(N)=O)C(=O)Nc2nc(-c3nn(CCC(F)(F)C(F)(F)F)c4ncccc34)nc(N)c21` (stereo not drawn) [Example 161, 4-Amino-5-Methyl-6-Oxo-2-[1-(3,3,4,4,4-Pentafluorobutyl)-1H-Pyrazolo[3,4-B]Pyridin-3-yl]-6,7-Dihydro-5H-Pyrrolo[2,3-D]Pyrimidine-5-Carboxamide] was run?
Answer: B (Category B=SBP in SHRs 25-40 mmHg)

Question: What does the source list for `NC(=O)C1(C2CC2)C(=O)Nc2nc(-c3nn(CCC(F)(F)C(F)(F)F)c4ncccc34)nc(N)c21` (stereo not drawn) [Example 162, 4-Amino-5-Cyclopropyl-6-Oxo-2-[1-(3,3,4,4,4-Pentafluorobutyl)-1H-Pyrazolo[3,4-B]Pyridin-3-yl]-6,7-Dihydro-5H-Pyrrolo[2,3-D]Pyrimidine-5-Carboxamide]?
Answer: Maximum SBP reduction (dose 0.3 mpk): 26 ± 7 mmHg; Maximum peak decrease of systolic blood pressure (SBP) in SHR, Category (single oral dose 0.3 mpk P.O.): B (Category B=SBP in SHRs 25-40 mmHg)

Question: `N#CC1(C2CC2)C(=O)Nc2nc(-c3nn(CCC(F)(F)C(F)(F)F)c4ncccc34)nc(N)c21` (stereo not drawn) [Example 163, 4-Amino-5-Cyclopropyl-6-Oxo-2-[1-(3,3,4,4,4-Pentafluorobutyl)-1H-Pyrazolo[3,4-B]Pyridin-3-yl]-6,7-Dihydro-5H-Pyrrolo[2,3-D]Pyrimidine-5-Carbonitrile] was tested. Which “Maximum peak decrease” value (single oral dose 0.3 mpk P.O.) did it give?
Answer: C (Category C=SBP in SHRs>40 mmHg)

Question: Which “Maximum peak decrease” value (single oral dose 0.3 mpk P.O.) does the source give for `CC1(C(=O)NC2CC2)C(=O)Nc2nc(-c3nn(CCC(F)(F)C(F)(F)F)c4ncccc34)nc(N)c21` (stereo not drawn) [Example 164, 4-Amino-N-Cyclopropyl-5-Methyl-6-Oxo-2-[1-(3,3,4,4,4-Pentafluorobutyl)-1H-Pyrazolo[3,4-B]Pyridin-3-yl]-6,7-Dihydro-5H-Pyrrolo[2,3-D]Pyrimidine-5-Carboxamide] here?
Answer: C (Category C=SBP in SHRs>40 mmHg)

Question: How did the “Maximum peak decrease” value (single oral dose 0.3 mpk P.O.) turn out when `CC1(C(=O)Nc2ccccc2)C(=O)Nc2nc(-c3nn(CCC(F)(F)C(F)(F)F)c4cc(Cl)ccc34)nc(N)c21` (stereo not drawn) [Example 165, 4-Amino-2-[6-Chloro-1-(3,3,4,4,4-Pentafluorobutyl)-1H-Indazol-3-yl]-5-Methyl-6-Oxo-N-Phenyl-6,7-Dihydro-5H-Pyrrolo[2,3-D]Pyrimidine-5-Carboxamide] was run?
Answer: B (Category B=SBP in SHRs 25-40 mmHg)

Question: How did the “Maximum peak decrease” value (single oral dose 0.3 mpk P.O.) turn out when `CCOC(=O)NC1(C)C(=O)Nc2nc(-c3nn(CCC(F)(F)C(F)(F)F)c4cc(Cl)ccc34)nc(N)c21` (stereo not drawn) [Example 166, Ethyl (4-Amino-2-(6-Chloro-1-(3,3,4,4,4-Pentafluorobutyl)-1H-Indazol-3-yl)-5-Methyl-6-Oxo-6,7-Dihydro-5H-Pyrrolo[2,3-D]Pyrimidin-5-yl)Carbamate] was run?
Answer: A (Category A=SBP in SHRs<25 mmHg)

Question: With `Cc1nc(C2(C)C(=O)Nc3nc(-c4nn(CCC(F)(F)C(F)(F)F)c5cc(Cl)ccc45)nc(N)c32)sc1C` (stereo not drawn) [Example 167, 4-Amino-2-[6-Chloro-1-(3,3,4,4,4-Pentafluorobutyl)-1H-Indazol-3-yl]-5-(4,5-Dimethyl-1,3-Thiazol-2-yl)-5-Methyl-5,7-Dihydro-6H-Pyrrolo[2,3-D]Pyrimidin-6-One] as the compound, how does the “Maximum peak decrease” value (single oral dose 0.3 mpk P.O.) read?
Answer: B (Category B=SBP in SHRs 25-40 mmHg)

Question: With `CC1(c2nncs2)C(=O)Nc2nc(-c3nn(CCC(F)(F)C(F)(F)F)c4ncccc34)nc(N)c21` (stereo not drawn) [Example 168, 4-Amino-5-Methyl-2-[1-(3,3,4,4,4-Pentafluorobutyl)-1H-Pyrazolo[3,4-B]Pyridin-3-yl]-5-(1,3,4-Thiadiazol-2-yl)-5,7-Dihydro-6H-Pyrrolo[2,3-D]Pyrimidin-6-One] as the compound, how does the “Maximum SBP reduction” value (dose 0.3 mpk) read?
Answer: 19 ± 9 mmHg

Question: What about the “Maximum peak decrease” value (single oral dose 0.3 mpk P.O.) of the same compound?
Answer: A (Category A=SBP in SHRs<25 mmHg)

Question: Which “Maximum SBP reduction” value (dose 0.3 mpk) does the source give for `Cc1nnc(C2(C)C(=O)Nc3nc(-c4nn(CCC(F)(F)C(F)(F)F)c5ncccc45)nc(N)c32)o1` (stereo not drawn) [Example 169, 4-Amino-5-Methyl-5-(5-Methyl-1,3,4-Oxadiazol-2-yl)-2-[1-(3,3,4,4,4-Pentafluorobutyl)-1H-Pyrazolo[3,4-B]Pyridin-3-yl]-5,7-Dihydro-6H-Pyrrolo[2,3-D]Pyrimidin-6-One] here?
Answer: 52 ± 5 mmHg

Question: What about the “Maximum peak decrease” value (single oral dose 0.3 mpk P.O.) of the same compound?
Answer: C (Category C=SBP in SHRs>40 mmHg)

Question: `CC(C)n1nc(C2(C)C(=O)Nc3nc(-c4nn(CCC(F)(F)C(F)(F)F)c5cc(Cl)ccc45)nc(N)c32)oc1=O` (stereo not drawn) [Example 171, 4-Amino-2-[6-Chloro-1-(3,3,4,4,4-Pentafluorobutyl)-1H-Indazol-3-yl]-5-Methyl-5-[5-Oxo-4-(Propan-2-yl)-4,5-Dihydro-1,3,4-Oxadiazol-2-yl]-5,7-Dihydro-6H-Pyrrolo[2,3-D]Pyrimidin-6-One] was tested. Which “Maximum peak decrease” value (single oral dose 0.3 mpk P.O.) did it give?
Answer: C (Category C=SBP in SHRs>40 mmHg)

Question: How did the “Maximum peak decrease” value (single oral dose 0.3 mpk P.O.) turn out when `CC(C)n1nc(C2(C)C(=O)Nc3nc(-c4nn(CCC(F)(F)C(F)(F)F)c5cc(Cl)ccc45)nc(N)c32)oc1=S` (stereo not drawn) [Example 172, 4-Amino-2-[6-Chloro-1-(3,3,4,4,4-Pentafluorobutyl)-1H-Indazol-3-yl]-5-Methyl-5-[4-(Propan-2-yl)-5-Thioxo-4,5-Dihydro-1,3,4-Oxadiazol-2-yl]-5,7-Dihydro-6H-Pyrrolo[2,3-D]Pyrimidin-6-One] was run?
Answer: A (Category A=SBP in SHRs<25 mmHg)
